Results published in patent US8759295B2, “Peptide-peptidase inhibitor conjugates and methods of using same” (Amylin Pharmaceuticals, LLC, priority 2006, dated 2014).

Target: T1, ACE from rabbit lung (Oryctolagus cuniculus, UniProt P12822)
T1 construct: ACE from rabbit lung, Sigma Chemical Co., St. Louis, Mo; purchased Sigma Chemical Co., St. Louis, Mo; host or cells: rabbit lung (tissue-derived enzyme)
T1 sequence (P12822 34-1310): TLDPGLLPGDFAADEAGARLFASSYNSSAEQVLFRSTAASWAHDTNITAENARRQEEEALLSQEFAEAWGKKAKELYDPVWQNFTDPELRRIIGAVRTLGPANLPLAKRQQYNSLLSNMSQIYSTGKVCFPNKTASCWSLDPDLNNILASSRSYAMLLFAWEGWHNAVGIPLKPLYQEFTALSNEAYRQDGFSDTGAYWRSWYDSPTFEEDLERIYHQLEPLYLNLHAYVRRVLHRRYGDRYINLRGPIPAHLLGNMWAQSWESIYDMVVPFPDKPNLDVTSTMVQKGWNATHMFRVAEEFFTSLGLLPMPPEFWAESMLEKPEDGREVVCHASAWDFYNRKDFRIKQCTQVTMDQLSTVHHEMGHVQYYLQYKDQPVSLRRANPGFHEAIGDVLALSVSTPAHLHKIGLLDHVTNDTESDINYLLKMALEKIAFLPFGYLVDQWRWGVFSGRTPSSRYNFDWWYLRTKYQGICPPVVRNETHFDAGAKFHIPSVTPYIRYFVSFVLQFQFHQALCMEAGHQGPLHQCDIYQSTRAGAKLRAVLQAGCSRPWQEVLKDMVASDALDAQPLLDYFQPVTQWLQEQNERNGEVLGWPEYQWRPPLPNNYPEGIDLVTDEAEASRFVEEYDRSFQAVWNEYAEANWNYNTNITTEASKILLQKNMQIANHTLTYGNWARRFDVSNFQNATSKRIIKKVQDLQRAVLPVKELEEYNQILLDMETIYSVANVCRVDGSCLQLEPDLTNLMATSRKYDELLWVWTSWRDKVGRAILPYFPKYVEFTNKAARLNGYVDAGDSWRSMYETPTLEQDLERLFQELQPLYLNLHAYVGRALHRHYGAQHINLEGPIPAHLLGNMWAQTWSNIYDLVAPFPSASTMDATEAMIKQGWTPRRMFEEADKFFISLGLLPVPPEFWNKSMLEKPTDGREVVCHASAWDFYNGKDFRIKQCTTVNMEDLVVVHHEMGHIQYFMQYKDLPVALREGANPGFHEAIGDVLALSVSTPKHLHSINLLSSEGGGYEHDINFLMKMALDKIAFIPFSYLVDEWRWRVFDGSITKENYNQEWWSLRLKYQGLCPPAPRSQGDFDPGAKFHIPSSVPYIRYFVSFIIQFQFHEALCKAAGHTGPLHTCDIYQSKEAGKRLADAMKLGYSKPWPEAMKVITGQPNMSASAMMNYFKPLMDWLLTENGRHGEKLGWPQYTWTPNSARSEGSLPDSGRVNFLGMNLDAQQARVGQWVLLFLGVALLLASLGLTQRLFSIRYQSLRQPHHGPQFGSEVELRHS
Assay: ACE inhibition assay
Format: biochemical
Experimental: Peptide-ACE peptidase inhibitor conjugate compounds were assessed in an ACE inhibition assay using purified ACE enzyme and chromogenic substrates. An ACE stock solution was prepared by dissolving 0.1 unit of enzyme (ACE from rabbit lung, Sigma Chemical Co., St. Louis, Mo.) in 0.640 mL of HEPES buffer (0.1 M, pH=8). A 2 mM stock solution of substrate (N-benzyloxycarbonyl-Phe-His-Leu-OH) dissolved in methanol. The ACE inhibitor compounds were dissolved in phosphate buffer (0.1 M, pH=8) at concentrations of 0.0, 1, 10, 20, 60 and 100 μM. For the inhibition assay, six 2 mL microcentrifuge tubes were prepared containing 1.45 mL of phosphate buffer pH=8, 0.05 mL of 10% NaCl and 0.015 mL of substrate solution. To each microcentrifuge tube was added 0.015 mL of one of the ACE inhibitor compound's stock solutions. The solutions were heated at 37° C. for about 5 minutes. […] Initial rates were determined from linear portions of product release curves. […] Apparent binding constants (Kd^app or Ki^app) of inhibitors to ACE were determined by fitting inhibition curves (initial rate vs. inhibitor concentration) to equation:
[formula] where v0 is reaction rate in the absence of inhibitor and [I]—inhibitor concentration. Fits were done by least-squares method using KaleidaGraph 3.6 (Synergy Software, Reading Pa.).

CC[C@H](C)[C@H](NC(=O)[C@H](Cc1ccccc1)NC(=O)[C@H](CCC(=O)O)NC(=O)[C@H](CCCCN)NC(=O)[C@H](C)NC(=O)[C@H](C)NC(=O)[C@H](CCC(N)=O)NC(=O)CNC(=O)[C@H](CCC(=O)O)NC(=O)[C@H](CC(C)C)NC(=O)[C@H](Cc1ccc(O)cc1)NC(=O)[C@H](CO)NC(=O)[C@H](CO)NC(=O)[C@@H](NC(=O)[C@H](CC(=O)O)NC(=O)[C@H](CO)NC(=O)[C@@H](NC(=O)[C@H](Cc1ccccc1)NC(=O)[C@@H](NC(=O)CNC(=O)[C@H](CCC(=O)O)NC(=O)[C@H](C)NC(=O)[C@@H](N)Cc1c[nH]cn1)[C@@H](C)O)[C@@H](C)O)C(C)C)C(=O)N[C@@H](C)C(=O)N[C@@H](Cc1c[nH]c2ccccc12)C(=O)N[C@@H](CC(C)C)C(=O)N[C@H](C(=O)N[C@@H](CCCCN)C(=O)NCC(=O)N[C@@H](CCCNC(=N)N)C(=O)NCC(=O)NCCCC(=O)NCCCC[C@H](NC(=O)[C@@H]1CCC(=O)N1)C(=O)N[C@@H](Cc1c[nH]c2ccccc12)C(=O)N[C@@H](C)C(=O)N1CCC[C@H]1C(=O)O)C(C)C [3633/38, GLP-1-(7-37)-γ-Abu-N^ε2Lys-(Pyr)-WAP-OH]
IC50: > 10 µM
